Measured values taken from US6239122A, “Method of treatment of nausea, vomiting, and other disorders using estrogens” (priority 2000, dated 2001).

Tests used:
5-HT3 receptor [1] = target: T1, 5-HT3 receptor (Mus musculus, UniProt P23979); assay: Whole-cell patch clamp, co-application of estrogen with 5-HT (0.5 μM); open conformation, high affinity site; type: cell-based, mouse neuroblastoma×Chinese hamster brain cell line (NCB-20)
T1 construct: an immortal cell line that expresses 5-HT3 receptors at a high density; endogenous in cells; host or cells: NCB-20 cells (mouse neuroblastoma × Chinese hamster brain hybrid)
T1 sequence (P23979 24-489): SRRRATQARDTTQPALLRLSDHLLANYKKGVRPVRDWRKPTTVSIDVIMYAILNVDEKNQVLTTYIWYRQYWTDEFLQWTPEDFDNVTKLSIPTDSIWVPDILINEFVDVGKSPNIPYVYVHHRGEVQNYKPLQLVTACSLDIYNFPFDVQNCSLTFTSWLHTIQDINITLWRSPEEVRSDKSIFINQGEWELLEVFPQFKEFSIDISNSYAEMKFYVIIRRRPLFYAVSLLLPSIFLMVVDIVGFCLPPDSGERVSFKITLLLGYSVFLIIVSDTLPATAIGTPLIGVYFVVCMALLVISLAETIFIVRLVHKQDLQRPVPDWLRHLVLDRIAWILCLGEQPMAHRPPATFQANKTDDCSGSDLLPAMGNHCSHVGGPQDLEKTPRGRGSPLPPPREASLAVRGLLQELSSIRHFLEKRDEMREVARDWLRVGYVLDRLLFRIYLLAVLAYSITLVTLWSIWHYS
Method: I recorded membrane currents carried by 5-HT3 receptors under voltage-clamp from single cells using the whole-cell configuration of the patch clamp technique (Hamill, O. P., Marty, A., Neher, E., Sakmann, B. & Sakmann, F. J., 1981, Pfluegers Arch. 391:85-100). Recordings were performed at a holding potential of -60 mV. Ligands were applied to the cells using a gravity-feed rapid perfusion system.
When the agonist is bound to the receptor and the receptor is conducting current, the receptor is in an open conformation. […] Concentration-effect data from 21 cells were fitted with the Hill (logistic) equation.

5-HT3 receptor [2] = target: T1, 5-HT3 receptor; assay: Whole-cell patch clamp, estrogen applied before 5-HT (10 μM); closed conformation, low affinity site; type: cell-based, mouse neuroblastoma×Chinese hamster brain cell line (NCB-20)
Method: I used NCB-20 cells (mouse neuroblastoma×Chinese hamster brain cell line), an immortal cell line that expresses 5-HT3 receptors at a high density. Cells were grown in Dulbecco's modified Eagles medium containing 10% fetal bovine serum, 100 U/ml penicillin, 100 μg/ml streptomycin and 2 mM glutamine. Cells were incubated in 35 mm plates at 37 degrees C in a humidified 7% carbon dioxide atmosphere. […] I recorded membrane currents carried by 5-HT3 receptors under voltage-clamp from single cells using the whole-cell configuration of the patch clamp technique (Hamill, O. P., Marty, A., Neher, E., Sakmann, B. & Sakmann, F. J., 1981, Pfluegers Arch. 391:85-100). Recordings were performed at a holding potential of -60 mV. Ligands were applied to the cells using a gravity-feed rapid perfusion system.
This is also called the closed conformation of the receptor.

C[C@]12CC[C@@H]3c4ccc(O)cc4CC[C@H]3[C@@H]1C[C@@H](O)[C@@H]2O [estriol]
IC50 (5-HT3 receptor [1]): 22000 ± 8000 nM

C[C@]12CC[C@@H]3c4ccc(O)cc4CC[C@H]3[C@@H]1CCC2=O [estrone, 3-hydroxyestra-1,3,5(10)-trien-17-one]
IC50 (5-HT3 receptor [2]): 300 ± 20 nM
IC50 (5-HT3 receptor [1]): 1.5 nM
